Common to all, as to format: cell-based
The subject of one assay is BK Polyoma virus. As to the kind of experiment: Comparative data for inactivation with BPL: BK Polyoma virus. The following applies: BPL 0.05%; 16 hours +2-8° C. (then 2 hours 37° C. for BPL hydrolysis).
Assay [1] concerns Enteroviruses (Coxsackie virus, Echovirus). As to the kind of experiment: Comparative data for inactivation with BPL: Enteroviruses. Particulars: BPL 0.05%; 16 hours +2-8° C. (then 2 hours 37° C. for BPL hydrolysis).
In assay [2] the test system is Mammalian orthoreovirus, type 3 (strain Dearing, ATCC VR-824).

These results are taken from patent US9426989B2 (priority 2010, dated 2016).

In the case of `O=C1CCO1` [BPL, β-propiolactone], the LRV with BK Polyoma virus is 2.1; in assay [1] it was 4-5.
In the case of `COO` [Inactivator 072, Methylhydroperoxide], in assay [2], the “Reduction (of reovirus titre)” value is 0.9 log 10 and the “reovirus inactivation, in words” value is “performed poorly”.
